Here are results for 10 compounds from patent publication US5116858A, “4-imidazoline derivatives” (Mitsubishi Kasei Corporation, priority 1989, dated 1992).

In one data set the test system is mice. In words: Passive avoidance response test (memory-improving activity, cycloheximide-treated mice). The format is in vivo. The note with it: Mus musculus; oral, 15 mice per group, cycloheximide 120 mg/kg s.c., latent time; read-out: Memory-Improving Activity, Minimum Effective Dose. The procedure: Passive avoidance response test was conducted in mice (15 animals per group) using light-dark differential apparatus of step-down type. The apparatus consisted of a dark room made of black and rigid vinylidene chloride resin [30 cm (depth)×30 cm (width)×31 cm (height)] and a light room, as an adjacent room, made of transparent rigid vinylidene chloride resin. The floor of the light room was set 2 cm higher than the grid surface of the dark room (step down type), and there was a guillotine door between the rooms. The animals were placed in the apparatus and acclimatized before test, and latent time for moving from the light room to the dark room was determined.
The acclimatized animals subcutaneously received 120 mg/kg of cycloheximide (Sigma) dissolved in physiological saline. After 30 minutes of the administration, the animals were placed in the light room. Immediatly after the movement of the animals to the dark room, electric current was applied on the grid (0.5 mA, 3 seconds), which gave the animals "aquired behavior". After 24 hours of the establishment of the aquired behavior, a test compound suspended in 1% tragacanth was administered orally to the animals, which were then returned to the light room. Control animals received only 1% tragacanth. The latent time until an individual animal started to move to the dark room was determined.

Data set [1] has as its system peroxidized lipid in rat brain homogenate. In words: Lipoperoxidation inhibitory activity in brain homogenate (TBA method). The format is biochemical, Wistar male rats. The note with it: 30 minutes at 37° C., final conc. 0.3-100 μM, read-out: Anti-lipoperoxidation Activity IC50. The procedure:
Brain homogenate was prepared using Wistar male rats in accordance with the following procedure. […] A polyethylene tube was inserted into the aorta through the left ventricle, and fixed. Brain perfusion was conducted using ice-cooled 50 mM phosphate buffered saline (PBS), pH 7.4, through the tube, and whole brain was extracted. After removal of the cerebellum, the cerebrum was weighed while wet and homogenated by a Teflon homogenizer under ice-cooling, after addition of nine-fold by weight of PBS. The resultant homogenate was centrifuged at 4° C. (2200 r.p.m., 10 minutes), and an aliquot of the supernatant (0.3 ml) was placed in a light-resistant test tube with ground stopper and used for the following test.
To the brain homogenate obtained above were added PBS (0.6 ml) and an ethanol solution (10 μl) containing a predetermined amount of a test compound. Thus, each of the ethanol solutions was prepared so that the final concentration of the compound was 0.3-100 μM. The mixture was allowed to warm for 30 minutes at 37° C. (external bath temperature). […] (2600 r.p.m., 10 minutes). The resultant supernatant was used in the following quantitative analysis.
The aqueous mixture was heated in a boiling-water bath for 60 minutes and cooled rapidly. Distilled water (1.0 ml) and a mixture of pyridine and butanol (1:15) (5.0 ml) were added to the cooled mixture, and the latter was shaken for 30 seconds and centrifuged (3000 r.p.m., 10 minutes). The supernatant was used as a test sample for quantitative analysis of peroxidized lipid as mentioned below.

A short description of the next data set: Acute toxicity, oral. The note with it: rat, in vivo, SD rats, seven-day observation. The procedure: Compounds of the invention suspended in 1% tragacanth was orally administered to SD rats (both male and female) and mortality (LD50) was determined after seven-day observation.
Data set [2] relates to cytotoxicities caused by active oxygen species. The conditions noted are these: background; cited from earlier work.
For data set [3] the following is noted: background, Iyakuhin Kenkyu 16, 1 (1985); cited from earlier work.

As for `CCCCc1ccc(-c2c(C)[nH]c(=O)n2C)cc1` [Compound No. 2, 5-(4'-n-Butylphenyl)-1,4-dimethyl-4-imidazolin-2-one], the minimal effective dose with mice was found to be 0.1 mg/kg. The IC50 in data set [1] was determined as 10.7 µM. The LD50 at 168 h in the data set “Acute toxicity, oral” is > 1000 mg/kg.

Consider `CCCCc1ccc(-c2c(C)[nH]c(=O)n2Cc2ccccc2)cc1` [Compound No. 137, 1-Benzyl-5-(4'-n-butylphenyl)-4-methyl-4-imidazolin-2-one], for which, in the data set with mice, the minimal effective dose stood at 0.1 mg/kg. Further, the IC50 in data set [1] turned out to be 12.4 µM. Moreover, the LD50 at 168 h in “Acute toxicity, oral” was > 1000 mg/kg.

For `O=C1O[C@H]([C@@H](O)CO)C(O)=C1O` [Vitamin C], the “activity as inhibitory agent for cytotoxicities (in words)” value in data set [2] is given as “very limited in their activities”.

Regarding `Cc1[nH]c(=O)n(C)c1-c1ccc(C2CCCCC2)cc1` [compound 8], the minimal effective dose in the data set with mice was determined as 0.1 mg/kg. Also, the 50% inhibitory concentration (IC50) in data set [1] stood at 10 µM. The LD50 at 168 h in “Acute toxicity, oral” was > 1000 mg/kg.

Take `Cc1[nH]c(=O)n(C)c1-c1ccc(-c2ccccc2)cc1` [compound 16]: the minimal effective dose in the data set on mice was found to be 0.3 mg/kg. Besides, the half-maximal inhibitory concentration (IC50) in data set [1] is 6.3 µM. In addition, the LD50 at 168 h in the data set “Acute toxicity, oral” is > 1000 mg/kg.

On to `CCCCOc1ccc(-c2c(C)[nH]c(=O)n2C2CCCCC2)cc1` [compound 111], for which the minimal effective dose with mice turned out to be 0.1 mg/kg. Further, in data set [1], the IC50 is 13.9 µM.

As to `Cc1[nH]c(=O)n(Cc2ccccc2)c1-c1ccc(-c2ccccc2)cc1` [compound 141], the minimal effective dose in the data set on mice came out at 0.1 mg/kg. In addition, the IC50 in data set [1] is 7.9 µM.

Consider `CCCCOc1ccc(-c2c(C)[nH]c(=O)n2Cc2ccccc2)cc1` [compound 142], for which the minimal effective dose with mice amounted to 0.3 mg/kg. Further, the IC50 in data set [1] came out at 12.8 µM.

On to `CCN(CC)Cc1nccn1-c1ccc([N+](=O)[O-])cc1C(=O)c1ccccc1Cl` [nizofenone], for which the “inhibitory action on CNS (in words)” value in data set [3] is given as “strong inhibitory action on CNS”.

As for Vitamin E, the “activity as inhibitory agent for cytotoxicities (in words)” value in data set [2] was “very limited in their activities”.

The IC50 is the point on the concentration scale where inhibition reaches its midpoint. In general, LD50 refers to the dose expected to kill half of the subjects tested. The low end stands for a more toxic substance, the high end for a less toxic substance.
